Where two headings read alike, the source gives them in different places.
Key:
[1] = target: human CB1 receptor (hCB1) (Homo sapiens, UniProt P21554); assay: cell-based; assay type: cell-based; details: for +/− HCB1: agonist or inverse agonist at hCB1
Outline: (§1)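 Readout: LANCE TR-FRET cAMP, back-calculated from a concurrent standard curve and scaled between forskolin-only and forskolin + 1 μM CP55,940 wells. EC50 and intrinsic activity came from four-parameter fits.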

rat CB2 receptor (rCB2) = target: T1, rat CB2 receptor (rCB2) (Rattus norvegicus, UniProt Q9QZN9); assay: cell-based; assay type: cell-based; details: for +/− RCB2: agonist or inverse agonist at rCB2
T1 sequence (Q9QZN9 1-360): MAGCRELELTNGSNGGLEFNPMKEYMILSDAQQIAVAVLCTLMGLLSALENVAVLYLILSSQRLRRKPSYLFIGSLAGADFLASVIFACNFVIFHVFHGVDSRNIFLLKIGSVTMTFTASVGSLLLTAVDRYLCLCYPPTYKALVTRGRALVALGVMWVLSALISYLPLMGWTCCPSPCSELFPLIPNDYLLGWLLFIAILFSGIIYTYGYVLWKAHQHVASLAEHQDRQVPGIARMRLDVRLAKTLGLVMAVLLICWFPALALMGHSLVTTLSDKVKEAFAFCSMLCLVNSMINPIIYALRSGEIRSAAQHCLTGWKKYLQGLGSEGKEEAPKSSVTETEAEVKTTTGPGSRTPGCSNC
Outline: as §1

human CB1 receptor (hCB1), sequence (P21554 whole entry): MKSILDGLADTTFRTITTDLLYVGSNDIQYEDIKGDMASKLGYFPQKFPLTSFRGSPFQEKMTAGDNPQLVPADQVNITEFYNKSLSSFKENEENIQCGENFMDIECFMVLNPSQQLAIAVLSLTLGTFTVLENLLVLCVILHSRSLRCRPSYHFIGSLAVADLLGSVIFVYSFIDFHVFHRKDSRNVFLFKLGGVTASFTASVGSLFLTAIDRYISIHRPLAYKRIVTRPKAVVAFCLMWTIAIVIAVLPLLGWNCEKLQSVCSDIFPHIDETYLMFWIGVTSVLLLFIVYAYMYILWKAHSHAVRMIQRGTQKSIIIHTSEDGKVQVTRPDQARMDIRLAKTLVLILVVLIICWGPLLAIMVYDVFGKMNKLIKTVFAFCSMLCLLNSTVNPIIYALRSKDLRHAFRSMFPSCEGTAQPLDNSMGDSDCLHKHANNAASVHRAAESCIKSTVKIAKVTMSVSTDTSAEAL

Row | Compound | +/− HCB1 [1] | +/− RCB2 (rat CB2 receptor (rCB2)) | EC50 [1] [nM] | also measured
1 | CC(C)C[C@H](NC(=O)c1nc(-c2cc(Cl)ccc2F)n2c1CN(C)CCC2)C(N)=O [Compound 569, (S)-N-(1-amino-4-methyl-1-oxopentan-2-yl)-3-(5-chloro-2-fluorophenyl)-8-methyl-6,7,8,9-tetrahydro-5H-imidazo[1,5-a][1,4]diazepine-1-carboxamide] | + | + |  | 
2 | CNC(=O)[C@@H](NC(=O)c1nc(C(C)C(F)(F)F)n2c1CN(C)CCC2)C(C)(C)C (stereo partly drawn) [Compound 505, N-((S)-3,3-dimethyl-1-(methylamino)-1-oxobutan-2-yl)-8-methyl-3-(1,1,1-trifluoropropan-2-yl)-6,7,8,9-tetrahydro-5H-imidazo[1,5-a][1,4]diazepine-1-carboxamide] | + | + |  | 
3 | COC(=O)[C@@H](NC(=O)c1nc(-c2ccccc2)n2c1CN(C)CCC2)C(C)(C)C [Compound 467, (S)-methyl 3,3-dimethyl-2-(8-methyl-3-phenyl-6,7,8,9-tetrahydro-5H-imidazo[1,5-a][1,4]diazepine-1-carboxamido)butanoate] |  | + | > 10000 | 
4 | CNC(=O)[C@@H](NC(=O)c1nc(-c2ccccc2OC(F)(F)F)n2c1CN(C)CCC2)C(C)(C)C [Compound 333, (S)-N-(3,3-dimethyl-1-(methylamino)-1-oxobutan-2-yl)-8-methyl-3-(2-(trifluoromethoxy)phenyl)-6,7,8,9-tetrahydro-5H-imidazo[1,5-a][1,4]diazepine-1-carboxamide] |  | + | > 10000 | 
5 | CN1CCn2c(-c3ccccc3)nc(C(=O)N[C@H](C(=O)N(C)C)C(C)(C)C)c2C1 [Compound 79, (S)-N-(1-(dimethylamino)-3,3-dimethyl-1-oxobutan-2-yl)-7-methyl-3-phenyl-5,6,7,8-tetrahydroimidazo[1,5-a]pyrazine-1-carboxamide] |  | − | > 10000 | 
6 | CNC(=O)[C@@H](NC(=O)c1nc(-c2ccccc2)n2c1CN(C1CC1)CCC2)C(C)(C)C [Compound 199, (S)-8-cyclopropyl-N-(3,3-dimethyl-1-(methylamino)-1-oxobutan-2-yl)-3-phenyl-6,7,8,9-tetrahydro-5H-imidazo[1,5-a][1,4]diazepine-1-carboxamide] |  | + | > 10000 | 
7 | O=C(NCC1CCOCC1)c1nc(-c2ccccc2)n2c1CN(C(=O)C1CCOC1)CC2 (stereo not shown) [Compound 135, 3-phenl-N-((tetrahydro-2H-pyran-4-yl)methyl)-7-(tetrahydrofuran-3-carbonyl)-5,6,7,8-tetrahydroimidazo[1,5-a]pyrazine-1-carboxamide] |  |  |  | EC50 ([1]; groups >100 nM-10 μM and >10 μM, cAMP, CHO-K1 hCB1, read-out: EC50 HCB1): > 10000 nM; EC50 (rat CB2 receptor (rCB2); groups >100 nM-10 μM and >10 μM, cAMP, CHO-K1 rCB2, read-out: EC50 RCB2): > 10000 nM
8 | CN1CCCn2c(-c3ccc(F)cc3F)nc(C(=O)N[C@H](C(N)=O)C(C)(C)C)c2C1 [Compound 578, (S)-N-(1-amino-3,3-dimethyl-1-oxobutan-2-yl)-3-(2,4-difluorophenyl)-8-methyl-6,7,8,9-tetrahydro-5H-imidazo[1,5-a][1,4]diazepine-1-carboxamide] | + | + |  | 
9 | CNC(=O)[C@@H](NC(=O)c1nc(-c2ccccc2)n2c1CN(Cc1ccnn1C)CC2)C(C)(C)C [Compound 65, (S)-N-(3,3-dimethyl-1-(methylamino)-1-oxobutan-2-yl)-7-((1-methyl-1H-pyrazol-5-yl)methyl)-3-phenyl-5,6,7,8-tetrahydroimidazo[1,5-a]pyrazine-1-carboxamide] |  |  | > 10000 | EC50 (rat CB2 receptor (rCB2)): > 10000 nM
10 | CN1CCCn2c(-c3ccc(Cl)c(F)c3)nc(C(=O)N[C@H](C(N)=O)C(C)(C)C)c2C1 [Compound 577, (S)-N-(1-amino-3,3-dimethyl-1-oxobutan-2-yl)-3-(4-chloro-3-fluorophenyl)-8-methyl-6,7,8,9-tetrahydro-5H-imidazo[1,5-a][1,4]diazepine-1-carboxamide] | + | + |  | 
11 | CNC(=O)[C@@H](NC(=O)c1nc(-c2cnn(C)c2)n2c1CN(C)CCC2)C(C)(C)C [Compound 447, (S)-N-(3,3-dimethyl-1-(methylamino)-1-oxobutan-2-yl)-8-methyl-3-(1-methyl-1H-pyrazol-4-yl)-6,7,8,9-tetrahydro-5H-imidazo[1,5-a][1,4]diazepine-1-carboxamide] | + | + |  | 
12 | CNC(=O)[C@@H](NC(=O)c1nc(-c2cccc(C(F)(F)F)c2)n2c1CNCC2)C(C)(C)C [Compound 3, (S)-N-(3,3-dimethyl-1-(methylamino)-1-oxobutan-2-yl)-3-(3-(trifluoromethyl)phenyl)-5,6,7,8-tetrahydroimidazo[1,5-a]pyrazine-1-carboxamide] |  | − | > 10000 | 
13 | CNC(=O)[C@@H](NC(=O)c1nc(CCC(C)(C)C)n2c1CN(C)CCC2)C(C)(C)C [Compound 488, (S)-N-(3,3-dimethyl-1-(methylamino)-1-oxobutan-2-yl)-3-(3,3-dimethylbutyl)-8-methyl-6,7,8,9-tetrahydro-5H-imidazo[1,5-a][1,4]diazepine-1-carboxamide] |  | + | > 10000 | 
14 | CNC(=O)[C@@H](NC(=O)c1nc(/C=C/CC2CCCC2)n2c1CN(C)CCC2)C(C)(C)C [Compound 445, (S,E)-3-(3-cyclopentylprop-1-enyl)-N-(3,3-dimethyl-1-(methylamino)-1-oxobutan-2-yl)-8-methyl-6,7,8,9-tetrahydro-5H-imidazo[1,5-a][1,4]diazepine-1-carboxamide] |  | − | > 10000 | 
15 | CNC(=O)[C@@H](NC(=O)c1nc(C2=CCN(C(=O)OC(C)(C)C)CC2)n2c1CN(C)CCC2)C(C)(C)C [Compound 388, (S)-tert-butyl 4-(1-(3,3-dimethyl-1-(methylamino)-1-oxobutan-2-ylcarbamoyl)-8-methyl-6,7,8,9-tetrahydro-5H-imidazo[1,5-a][1,4]diazepin-3-yl)-5,6-dihydropyridine-1(2H)-carboxylate] |  |  | > 10000 | EC50 (rat CB2 receptor (rCB2)): > 10000 nM
16 | CNC(=O)[C@@H](NC(=O)c1nc(-c2cc(F)ccc2F)n2c1CN(C)CCC2)C(C)(C)C [Compound 359, (S)-3-(2,5-difluorophenyl)-N-(3,3-dimethyl-1-(methylamino)-1-oxobutan-2-yl)-8-methyl-6,7,8,9-tetrahydro-5H-imidazo[1,5-a][1,4]diazepine-1-carboxamide] |  | + | > 10000 | 
17 | CN1CCCn2c(-c3ccc(F)cc3F)nc(C(=O)N[C@@H](CC(C)(C)C)C(N)=O)c2C1 [Compound 589, (S)-N-(1-amino-4,4-dimethyl-1-oxopentan-2-yl)-3-(2,4-difluorophenyl)-8-methyl-6,7,8,9-tetrahydro-5H-imidazo[1,5-a][1,4]diazepine-1-carboxamide] | + | + |  | 

— patent publication US7517874B2 (priority 2007, dated 2009)
